Experimental data taken from patent US4585773A, “Isoindolinyl-alkyl-piperazines” (Bristol-Myers Company, priority 1984, dated 1986).
“And” between values parts separate entries of the source, which are not always exact repeats. Equal values may be shown once. Where a name gives a salt, the structure may show the parent alone. Read-outs that look alike come from different tables or passages of the source.

Assays:
[1] = conscious rat diuretic screen of Lipschitz (Table I); assay type: in vivo, rat (female Sprague Dawley; male Okamoto-Aoki); details: female Sprague Dawley rats; for response vs control in vivo at 3 mg/kg / response vs control in vivo at 30 mg/kg / response vs control in vivo at 0.3 mg/kg: Rattus norvegicus, po
Experimental: With respect to diuretic utility there can be mentioned the conscious rat diuretic screen of Lipschitz, et al. (J. Pharmacol. Exp. Therap. 79, 97-110 (1943)). In this test, dose response assays of diuretic, natruiretic and kaliuretic activity are determined by oral administration of the test substance. The compounds synthesized in Examples I-XI were tested for diuretic […]. The compound of Example I was tested as its monohydrochloride 2-propanolate hydrate, i.e. as C22 […] ClN4 O4 S.HCl. 0.2(CH3)2 CHOH.0.15H2 O. Testing was carried out by the diuretic screen of Lipschitz, et al. described previously. In Table I below Volume Ratio is the ratio of total volume excreted for the test comuound compared to the total volume excreted for the control, Na^+ Ratio is the Na^+ excreted for the test compound compared to the Na^+ excreted for the control, K^+ Ratio is the K^+ excreted for the test compound compared to the K^+ excreted for the control. Female Sprague Dawley rats were used in Test Nos. 1, 2, 6, 7, 11-29. Male Okamoto-Aoki rats were used in Test Nos. 3-5 and 8-10 and testing for antihypertensive activity was carried out simultaneously on the Test Nos. 3-5 rats. In some instances, compounds were retested at the same dose level.

[2] = test system: Spontaneously Hypertensive rat; test: antihypertensive activity, Spontaneously Hypertensive Rat (Table II); assay type: in vivo; details: for antihypertensive effect (in words): conclusion from Table II (SHR, and DOCA for Examples I-IV)
Experimental: Spontaneously Hypertensive Rat Male rats weighing 300-400 g, previously conditioned to the procedure, are prewarmed in a heating chamber (30° C.) for 10-20 min. and subsequently restrained in a wire holder at that temperature. Systolic blood pressure and heart rate are measured by the tailcuff technique using a pneumatic pulse transducer and a biotachometer before, and 2, 4, and 24 hours after oral administration of vehicle (0.25% Methocel in water) or test compounds suspended in vehicle at a dose volume equivalent to 5 ml/kg. Blood pressure and heart rate data are reported as changes from zero-hour measurements with vehicle control groups run periodically to confirm that the vehicle has no effect. Testing was carried out on the compounds of Examples I-XII for antihypertensive activity. In the case of all the compounds testing was carried out on the Spontaneously Hypertensive rat as described hereinbefore. In the case of the compounds of Examples I-IV testing was also carried out on the DOCA-salt Hypertensive Rat. The compound of Example I was tested as its monochloride 2-propanolate hydrate, i.e. as C22 […] ClN4 O4 S.HCl.0.2(CH3)2 CHOH.0.15H2 O in Tests 1-5; and as the 3/4 mole hydrochloride, i.e. C22 […] ClN4 O4 S: 3/4 HCl in Tests 3a, 4a, 5a-5d. Test results are set forth in Table II below wherein SHR stands for Spontaneously Hypertensive rat, DOCA stands for DOCA-salt Hypertensive Rat, ΔBP stands for the change in systolic blood pressure in mm Hg, ΔHR stands for the change in mean heart rate in beats per minute and the times set forth are the times after dosing. A peak change in ΔBP of more than 20 is considered as indicating activity.

[3] = test system: α blocking activity (phenylephrine); test: in vivo α blocking activity, phenylephrine (PE) as α-agonist (Table III); design: species or system rat; ED50: unit not given beside the values; details: for in vivo α blocking activity (in words): conclusion from Table III
Experimental: In this example the compounds of Examples I (modified), II, III, V, VI, VII, VIII, IX and XI were tested in rats for in vivo α blocking activity according to methodology described at page 312 of Deitchman, et al., Journal of Pharmacological Methods, 3, 311-321 (1980). In this test phenylephrine (PE below) or norepinephrine (NE below) was administered as an α-agonist to the rats before and after dosing with the test drug and the average interpolated dose or PE/NE effecting a 50 mm Hg increase in mean arterial blood pressure was determined. Table III below records the results. In such Table, ED50 stands for such average interpolated dose and Average Dose Shift stands for the average ratio of ED50 after drug administration to ED50 before drug administration. The compound of Example I was tested as its monochloride 2-propanolate hydrate, i.e. as C22 H27 ClN4 O4 S.HCl 0.2(CH3)2 CHOH.0.15H2 O in Tests 1-5 and as the 3/4 mole hydrochloride, i.e. C22 H27 ClN 4 O4 S.3/4HCL in Tests 2a and 3a. The route was intravenous except in the case of the runs of Test Nos. 2a, 3, 3a, 26-29 the route was oral.

[4] = molecular target: α1; test: in vitro α1 binding, [3H]WB-4101 (Table IV)
Experimental: (§1) In this Example the compounds of Examples I-XI were tested in vitro for α1 and α2 binding. The compound of Example I was tested as its monochloride 2-propanolate hydrate, i.e. as C22 […] CLN4 O4 S .HCl.0.2(CH3)2 CHOH 0.15H2 O. In the testing specific brain tissues were prepared as sources of binding sites. Aliquots of the washed members are incubated with a low concentration of […]. After incubation at suitable temperature, the reaction mixture is treated to separate the membrane-bound radioligand Radioactivity is measured. Linear regression analysis of the probit value for the percent of binding occurring in the presence of varying concentrations of the compound of interest plotted against the concentration of the compound yields concentrations which inhibit 50% specific binding, the IC50. The assay buffer is 50 mM Hepes.KOH, pH 7.4. The ligand is [^3 H]WB-4101 from New England Nuclear for α1 and [^3 H]Clonidine from New England Nuclear for α2. The results are considered against phentolamine methanesulfonate (Reference) which is considered a good α-binder.

[5] = molecular target: α2; test: in vitro α2 binding, [3H]Clonidine (Table IV)
Experimental: as §1

[6] = 3 mg/kg oral, read-out: K+ Ratio
[7] = 3 mg/kg oral, read-out: Na+ Ratio
[8] = 3 mg/kg oral, read-out: Volume Ratio
[9] = 30 mg/kg oral, read-out: K+ Ratio
[10] = 30 mg/kg oral, read-out: Na+ Ratio
[11] = 30 mg/kg oral, read-out: Volume Ratio
[12] = ED50 after/before drug, PE, dose 10, intravenous
[13] = [3H]WB-4101, brain tissue, 50 mM Hepes.KOH, pH 7.4, read-out: α1 Binding IC50
[14] = [3H]Clonidine, brain tissue, 50 mM Hepes.KOH, pH 7.4, read-out: α2 Binding IC50

| Compound | IC50 [4, 13] [nM] | IC50 [5, 14] [nM] | Urinary Na/K (Test Compound) ([1]; 3 mg/kg oral) | Urinary Na/K (Test Compound) ([1]; 30 mg/kg oral) | response vs control in vivo at 3 mg/kg [1, 6] [%] | response vs control in vivo at 3 mg/kg [1, 7] [%] | response vs control in vivo at 3 mg/kg [1, 8] [%] | response vs control in vivo at 30 mg/kg [1, 9] [%] | response vs control in vivo at 30 mg/kg [1, 10] [%] | response vs control in vivo at 30 mg/kg [1, 11] [%] | ΔBP 2 hours ([2]; SHR, 30 mg/kg oral) [mm Hg] | ΔBP 4 hours ([2]; SHR, 30 mg/kg oral) [mm Hg] | ΔHR 2 hours ([2]; SHR, 30 mg/kg oral) [beats per minute] | ΔHR 4 hours ([2]; SHR, 30 mg/kg oral) [beats per minute] | antihypertensive effect (in words) [2] | Average Dose Shift [3, 12] | other results |
| --- | --- | --- | --- | --- | --- | --- | --- | --- | --- | --- | --- | --- | --- | --- | --- | --- | --- |
| NS(=O)(=O)c1cc2c(cc1Cl)CN(CCCN1CCN(c3cccc(C(F)(F)F)c3)CC1)C2=O [Example IX, 6-chloro-2,3-dihydro-3-oxo-2-[3-[4-[3-(trifluoromethyl)phenyl]-1-piperazinyl]propyl]-1H-isoindole-5-sulfonamide hydrochloride hemihydrate] | 108 | > 1000 | 2.99 | 3.67 | 106 | 127 | 102 | 140 | 212 | 184 | -34 ± 14 | -32 ± 10 | 6 ± 17 | 0 ± 14 | good antihypertensive effect without significantly affecting heart rate | 6 ± 0.6 | in vivo α blocking activity (in words) [3]: weakly active; Average Dose Shift ([3]; iv): 2.2; ED50 ([3]; iv): 11.3 |
| NS(=O)(=O)c1cc2c(cc1Cl)CN(CCCN1CCN(Cc3ccccc3)CC1)C2=O [Example V, 6-chloro-2,3-dihydro-3-oxo-2-[3-[4-(phenylmethyl)-1-piperazinyl]propyl]-1H-isoindole-5-sulfonamide] | 933 | 1780 | – | 4.14 | – | 145 | 128 | 133 | 271 | 220 | -27 ± 10 | -30 ± 14 | -6 ± 15 | -39 ± 14 | good antihypertensive effect without significantly affecting heart rate | 1.7 ± 0.3 | Urinary Na/K (Test Compound) ([1]; 0.3 mg/kg oral): 2.33; response vs control in vivo at 0.3 mg/kg ([1]; 0.3 mg/kg oral, read-out: K+ Ratio): 99%; response vs control in vivo at 0.3 mg/kg ([1]; 0.3 mg/kg oral, read-out: Na+ Ratio): 97%; response vs control in vivo at 0.3 mg/kg ([1]; 0.3 mg/kg oral, read-out: Volume Ratio): 89% |
| Cl.N#Cc1cccnc1N1CCN(CCCN2Cc3cc(Cl)c(S(N)(=O)=O)cc3C2=O)CC1 [Example VI, 6-chloro-2-[3-[4-(3-cyano-2-pyridinyl)-1-piperazinyl]propyl]-2,3-dihydro-3-oxo-1H-isoindole-5-sulfonamide hydrochloride] | 305 | 3330 | 3.55 | 3.90 | 98 | 169 | 153 | 111 | 204 | 174 | -17 ± 10 | -7 ± 11 | 6 ± 41 | -10 ± 18 | – | 27 ± 3 | in vivo α blocking activity (in words) [3]: active as in vivo α blockers; Average Dose Shift ([3]; iv): 3 ± 0.2; ED50 ([3]; iv): 9.8 |
| COc1ccc(F)cc1N1CCN(CCCN2Cc3cc(Cl)c(S(N)(=O)=O)cc3C2=O)CC1 [Example XII, 6-chloro-2,3-dihydro-2-[3-[4-(3-fluoro-6-methoxyphenyl)-1-piperazinyl]propyl]-3-oxo-1H-isoindole-5-sulfonamide] | – | – | – | – | – | – | – | – | – | – | – | – | – | – | good antihypertensive effect without significantly affecting heart rate | – | peak change at 2 hours in ΔBP ([2]; SHR, 30 mg/kg oral): -64 mm Hg |
| Cc1ccc(N(CC2=NCCN2)c2cccc(O)c2)cc1 [phentolamine methanesulfonate, reference compound] | – | – | – | – | – | – | – | – | – | – | – | – | – | – | – | – | IC50 ([4]; phentolamine methanesulfonate reference run in the α1 tests, read-out: Reference IC50): 3.68 nM and 3.47 nM and 4.76 nM; IC50 ([5]; phentolamine methanesulfonate reference run in the α2 tests, read-out: Reference IC50): 5.45 nM and 3.12 nM |

The next lines start with results.

| IC50 [4, 13] [nM] | IC50 [5, 14] [nM] | Compound | Urinary Na/K (Test Compound) ([1]; 3 mg/kg oral) | Urinary Na/K (Test Compound) ([1]; 30 mg/kg oral) | response vs control in vivo at 3 mg/kg [1, 6] [%] | response vs control in vivo at 3 mg/kg [1, 7] [%] | response vs control in vivo at 3 mg/kg [1, 8] [%] | response vs control in vivo at 30 mg/kg [1, 9] [%] | response vs control in vivo at 30 mg/kg [1, 10] [%] | response vs control in vivo at 30 mg/kg [1, 11] [%] | ΔBP 2 hours ([2]; SHR, 30 mg/kg oral) [mm Hg] | ΔBP 4 hours ([2]; SHR, 30 mg/kg oral) [mm Hg] | ΔHR 2 hours ([2]; SHR, 30 mg/kg oral) [beats per minute] | ΔHR 4 hours ([2]; SHR, 30 mg/kg oral) [beats per minute] | antihypertensive effect (in words) [2] | Average Dose Shift [3, 12] | other results |
| --- | --- | --- | --- | --- | --- | --- | --- | --- | --- | --- | --- | --- | --- | --- | --- | --- | --- |
| 152000 | > 1000 | Cl.NS(=O)(=O)c1cc2c(cc1Cl)CN(CCCN1CCN(C(=O)c3ccccc3)CC1)C2=O.O [Example VII, 1-[3-[5-(aminosulfonyl)-6-chloro-1,3-dihydro-3-oxo-2H-isoindol-2-yl]propyl]-4-benzoylpiperazine hydrochloride monohydrate] | 2.07 | 3.27 | 113 | 92 | 89 | 111 | 140 | 112 | -7 ± 8 | -14 ± 3 | -32 ± 14 | -74 ± 24 | – | > 1.0 | ED50 ([3]; ED50 of PE after test drug, dose 10, intravenous): 2.6 |
| 144000 | > 1000 | NS(=O)(=O)c1cc2c(cc1Cl)CN(CCCN1CCN(C(=O)c3ccc(F)cc3)CC1)C2=O [Example VIII, 1-[3-[5-(Aminosulfonyl)-6-chloro-1,3-dihydro-3-oxo-2H-isoindol-2-yl]propyl]-4-(4-fluorobenzoyl)piperazine] | 2.60 | 3.69 | 94 | 98 | 89 | 99 | 142 | 122 | -9 ± 5 | -9 ± 4 | 2 ± 15 | 24 ± 15 | – | 1 ± 0.1 | – |
